Reference: ChEMBL document CHEMBL5331045, “Recent advances in β-lactamase inhibitor chemotypes and inhibition modes” (Eur J Med Chem, 2022)

Tests used:
[1] = Inhibition of Aeromonas hydrophila VIM2 preincubated for 30 mins followed by nitrocefin solution measured by UV based microtitre plate analysis
[2] = Inhibition of Aeromonas hydrophila NDM1 preincubated for 30 mins followed by nitrocefin solution measured by UV based microtitre plate analysis
[3] = Inhibition of Aeromonas hydrophila VIM4 preincubated for 30 mins followed by nitrocefin solution measured by UV based microtitre plate analysis
[4] = Binding affinity to IMP1 (unknown origin) assessed as inhibition constant; design: species or system Bacteria
[5] = Binding affinity to L1 (unknown origin) assessed as inhibition constant; design: species or system Homo sapiens
[6] = Binding affinity to VIM2 (unknown origin) assessed as inhibition constant; design: species or system Bacteria
[7] = Binding affinity to NDM1 (unknown origin) assessed as inhibition constant; design: species or system Bacteria
[8] = Binding affinity to Sfh1 (unknown origin) assessed as inhibition constant; design: species or system Homo sapiens
[9] = Binding affinity to IMP1 (unknown origin) expressed in Escherichia coli BL21 (DE3) assessed as inhibition constant using IPM as substrate incubated for 5 mins; design: species or system Homo sapiens
[10] = Binding affinity to VIM2 (unknown origin) expressed in Escherichia coli BL21 (DE3) assessed as inhibition constant using IPM as substrate incubated for 5 mins; design: species or system Homo sapiens
[11] = Inhibition of IMP1 (unknown origin); design: species or system Bacteria
Beta-lactamase VIM-1 [12] = target: T1, Beta-lactamase VIM-1 (Bacteria, UniProt Q8GDC1); assay: Inhibition of VIM1 (unknown origin)
[13] = Binding affinity to VIM4 (unknown origin) assessed as inhibition constant; design: species or system Homo sapiens
Beta-lactamase VIM-1 [14] = target: T1, Beta-lactamase VIM-1; assay: Binding affinity to VIM1 (unknown origin) assessed as inhibition constant
[15] = Inhibition of Imis (unknown origin) using cefazolin as substrate; design: species or system Homo sapiens
[16] = Inhibition of L1 (unknown origin) using cefazolin as substrate; design: species or system Homo sapiens
[17] = target: T2, Metallo-beta-lactamase type 2 (Bacteria, UniProt C7C422); assay: Inhibition of NDM1 (unknown origin) using cefazolin as substrate
[18] = Inhibition of IMP1 (unknown origin) using cefazolin as substrate; design: species or system Homo sapiens
[19] = Inhibition of VIM2 (unknown origin); design: species or system Bacteria
[20] = target: T2, Metallo-beta-lactamase type 2; assay: Inhibition of NDM1 (unknown origin); details: read-out: pIC50 (converted)
[21] = Inhibition of VIM2 (unknown origin) by spectroscopic analysis; design: species or system Homo sapiens
[22] = Inhibition of VIM2 (unknown origin) using nitrocefin as substrate incubated for 30 mins; design: species or system Homo sapiens
[23] = Inhibition of IMP1 (unknown origin) using nitrocefin as substrate incubated for 30 mins; design: species or system Homo sapiens
[24] = Inhibition of L1 (unknown origin) by spectroscopic analysis; design: species or system Homo sapiens
[25] = target: T2, Metallo-beta-lactamase type 2; assay: Inhibition of NDM1 (unknown origin) by spectroscopic analysis
[26] = Inhibition of IMP1 (unknown origin) by spectroscopic analysis; design: species or system Homo sapiens
Beta-lactamase CTX-M-14 = Beta-lactamase CTX-M-14 (Escherichia coli, UniProt Q9L5C7); assay: Inhibition of Escherichia coli beta-lactamase CTX-M-14
Beta-lactamase = Beta-lactamase (Enterobacter cloacae, UniProt P05364); assay: Inhibition of Enterobacter cloacae AmpC
[27] = Inhibition of Escherichia coli beta-lactamase CTX-M-15
Beta-lactamase OXA-1 = Beta-lactamase OXA-1 (Escherichia coli, UniProt P13661); assay: Inhibition of Escherichia coli beta-lactamase OXA-1
[28] = Inhibition of Pseudomonas aeruginosa beta-lactamase OXA-2
[29] = Inhibition of Escherichia coli beta-lactamase CTX-M-44
Beta-lactamase TEM-1 = Beta-lactamase TEM-1 (Escherichia coli, UniProt Q4GY26); assay: Inhibition of Escherichia coli beta-lactamase TEM-1
[30] = Inhibition of Escherichia coli beta-lactamase CMY-2
[31] = Inhibition of CphA (unknown origin); design: species or system Homo sapiens
Beta-lactamase OXA-23 = Beta-lactamase OXA-23 (Acinetobacter baumannii, UniProt Q9L4P2); assay: Inhibition of Acinetobacter baumannii beta-lactamase OXA-23
[32] = Inhibition of Escherichia coli beta-lactamase TEM-10
[33] = Inhibition of Aeromonas hydrophila IMP1 preincubated for 30 mins followed by nitrocefin solution measured by UV based microtitre plate analysis
[34] = target: Carbapenem-hydrolyzing beta-lactamase KPC (Klebsiella pneumoniae, UniProt Q9F663); assay: Inhibition of Klebsiella pneumoniae beta-lactamase KPC-2
[35] = target: T2, Metallo-beta-lactamase type 2; assay: Inhibition of NDM1 (unknown origin) using fluorescent cephalosporin FC5 as substrate incubated for 15 mins followed by substrate addition measured by fluorescence based analysis
[36] = Inhibition of IMP28 (unknown origin) using fluorescent cephalosporin FC5 as substrate incubated for 15 mins followed by substrate addition measured by fluorescence based analysis; design: species or system Homo sapiens
[37] = Inhibition of VIM2 (unknown origin) using fluorescent cephalosporin FC5 as substrate incubated for 15 mins followed by substrate addition measured by fluorescence based analysis; design: species or system Homo sapiens

T2 sequence (C7C422 whole entry): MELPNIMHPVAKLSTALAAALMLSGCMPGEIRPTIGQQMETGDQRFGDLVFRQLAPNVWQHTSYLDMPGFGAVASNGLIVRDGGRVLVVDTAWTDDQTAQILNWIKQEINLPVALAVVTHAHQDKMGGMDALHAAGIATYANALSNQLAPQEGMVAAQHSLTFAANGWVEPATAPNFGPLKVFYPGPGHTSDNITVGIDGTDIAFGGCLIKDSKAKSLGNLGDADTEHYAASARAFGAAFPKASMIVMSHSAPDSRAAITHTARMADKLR
Chain of Beta-lactamase (P05364 whole entry): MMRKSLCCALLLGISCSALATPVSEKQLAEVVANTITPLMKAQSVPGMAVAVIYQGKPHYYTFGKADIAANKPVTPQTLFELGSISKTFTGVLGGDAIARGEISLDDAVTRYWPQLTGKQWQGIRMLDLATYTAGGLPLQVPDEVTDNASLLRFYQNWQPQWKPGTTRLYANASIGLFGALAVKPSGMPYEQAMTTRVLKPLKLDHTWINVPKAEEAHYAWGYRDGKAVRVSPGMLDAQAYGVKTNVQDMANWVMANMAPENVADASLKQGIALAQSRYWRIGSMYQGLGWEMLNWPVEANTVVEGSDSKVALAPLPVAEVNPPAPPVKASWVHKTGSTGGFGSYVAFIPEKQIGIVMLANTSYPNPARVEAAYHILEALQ
Chain of Beta-lactamase OXA-1 (P13661 whole entry): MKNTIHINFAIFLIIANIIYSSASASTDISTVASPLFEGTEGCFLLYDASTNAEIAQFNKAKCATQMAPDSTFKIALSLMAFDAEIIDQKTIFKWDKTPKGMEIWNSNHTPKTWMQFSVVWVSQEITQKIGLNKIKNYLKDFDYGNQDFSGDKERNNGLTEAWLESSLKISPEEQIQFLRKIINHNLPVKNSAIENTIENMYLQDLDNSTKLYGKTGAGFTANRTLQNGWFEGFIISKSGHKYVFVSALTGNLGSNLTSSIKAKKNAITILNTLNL
Chain of Beta-lactamase CTX-M-14 (Q9L5C7 whole entry): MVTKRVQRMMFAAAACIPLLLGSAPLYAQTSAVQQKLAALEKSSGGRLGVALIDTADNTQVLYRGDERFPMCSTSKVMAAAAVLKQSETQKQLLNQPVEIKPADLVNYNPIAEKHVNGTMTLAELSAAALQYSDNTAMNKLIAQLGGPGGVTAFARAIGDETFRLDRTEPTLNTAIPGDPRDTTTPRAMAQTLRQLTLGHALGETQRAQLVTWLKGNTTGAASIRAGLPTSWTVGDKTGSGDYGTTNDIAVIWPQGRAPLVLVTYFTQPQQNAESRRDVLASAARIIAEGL
Chain of Beta-lactamase TEM-1 (Q4GY26 whole entry): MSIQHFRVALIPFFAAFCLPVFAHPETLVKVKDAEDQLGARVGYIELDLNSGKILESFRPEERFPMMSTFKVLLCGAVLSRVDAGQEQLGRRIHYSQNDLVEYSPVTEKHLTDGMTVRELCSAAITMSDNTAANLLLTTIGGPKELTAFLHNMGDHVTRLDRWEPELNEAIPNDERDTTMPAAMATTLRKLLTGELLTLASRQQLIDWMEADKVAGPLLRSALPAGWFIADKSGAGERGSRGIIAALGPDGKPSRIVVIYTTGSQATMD
Chain of Carbapenem-hydrolyzing beta-lactamase KPC (Q9F663 whole entry): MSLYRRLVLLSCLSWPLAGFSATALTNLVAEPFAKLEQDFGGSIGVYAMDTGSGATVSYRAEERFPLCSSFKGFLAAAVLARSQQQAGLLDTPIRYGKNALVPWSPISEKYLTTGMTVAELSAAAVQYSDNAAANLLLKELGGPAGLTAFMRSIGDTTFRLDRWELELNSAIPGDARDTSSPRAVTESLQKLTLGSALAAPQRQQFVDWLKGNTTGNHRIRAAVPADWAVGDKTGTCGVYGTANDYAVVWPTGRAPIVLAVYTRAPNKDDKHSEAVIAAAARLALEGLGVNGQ
Chain of Beta-lactamase OXA-23 (Q9L4P2 whole entry): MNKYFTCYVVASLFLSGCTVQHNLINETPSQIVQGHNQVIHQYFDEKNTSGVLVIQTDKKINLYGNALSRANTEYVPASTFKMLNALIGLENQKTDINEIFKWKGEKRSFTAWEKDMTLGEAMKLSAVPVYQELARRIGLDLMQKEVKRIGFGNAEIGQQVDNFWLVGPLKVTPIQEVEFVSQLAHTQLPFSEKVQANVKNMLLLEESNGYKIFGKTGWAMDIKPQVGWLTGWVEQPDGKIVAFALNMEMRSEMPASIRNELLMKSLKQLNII

Work on `Nn1c(-c2cc3ccccc3[nH]2)n[nH]c1=S` yielded an IC50 [1] of 14 µM, an IC50 [2] of 34 µM and an IC50 [3] of 19 µM.
With `COC(=O)[C@]1(CS)N[C@H](C(=O)O)CS1` the Ki ([4]; read-out: Ki) was 1000 nM, the Ki [5] was 10 µM and the Ki [6] was 380 nM. For the same compound, the Ki ([7]; read-out: Ki) was 5.2 µM and the Ki [8] was 160 nM.
For `Cc1oc(C)c(S(N)(=O)=O)c1C(=O)O`, the Ki [9] was 220 nM and the Ki [10] was 2810 nM.
Work on `Nc1nc2c(-c3ccc(S(=O)(=O)NC[C@H]4CCNC4)c(S(N)(=O)=O)c3-c3nnn[nH]3)cccc2s1` yielded an IC50 [11] of 0.16 nM and an IC50 (Beta-lactamase VIM-1 [12]; read-out: IC50) of 0.125 nM.
`COC(=O)[C@]1(CS)N[C@H](C(=O)O)C(C)(C)S1` gave a Ki ([4]; read-out: Ki) of 460 nM, a Ki [5] of 20 µM and a Ki [6] of 750 nM. It also gave a Ki ([7]; read-out: Ki) of 0.44 µM and a Ki [8] of 1300 nM.
`O=C(O)c1ccccc1CNn1c(-c2cccc(-c3ccccc3)c2)n[nH]c1=S` showed a Ki ([4]; read-out: Ki) of 76000 nM, a Ki [13] of 570 nM and a Ki [6] of 240 nM. The Ki ([7]; read-out: Ki) was 8.2 µM and the Ki (Beta-lactamase VIM-1 [14]) was 3.6 µM.
With `Nc1nc2cccc(-c3ccc(S(N)(=O)=O)c(S(N)(=O)=O)c3-c3nn[nH]n3)c2[nH]1` the IC50 [11] was 0.58 nM and the IC50 (Beta-lactamase VIM-1 [12]; read-out: IC50) was 0.264 nM.
For `O=C(O)CCCn1c(-c2cccc(-c3ccccc3)c2)n[nH]c1=S`, the Ki [4] was “Not Active”, the Ki [13] was 270 nM and the Ki [6] was 350 nM. The Ki ([7]; read-out: Ki) was 99.8 µM and the Ki (Beta-lactamase VIM-1 [14]) was 5.5 µM.
Work on `CCc1c(C(=O)O)c(S(N)(=O)=O)c(CC)n1C` yielded a Ki [9] of 260 nM and a Ki [10] of 20 nM.
In the case of `O=C(O)C1=C(CSc2nnc(-c3ccc(-n4[se]c5ccccc5c4=O)cc3)[nH]2)CSC2[C@@H](NC(=O)c3ccccc3)C(=O)N12` (stereo partly drawn), the IC50 [15] is reported as 4.86 µM, the IC50 [16] is reported as 6.68 µM and the IC50 [17] is reported as 2930 nM. For the same compound, the IC50 [18] was 280 nM.
`NS(=O)(=O)n1ccc(-c2ccc(F)cc2)c1C(=O)O` gave a pIC50 [11] of 9.2, a pIC50 [19] of 7.7 and an IC50 (Beta-lactamase VIM-1 [12]; read-out: pIC50 (converted)) of 126 nM.
`CC(C)c1cccc2c1N=C(C(=O)O)C2c1ccc(CS(C)(=O)=O)c(Cl)c1` (stereo not drawn) showed a pIC50 [11] of 8.5, an IC50 [20] of 1.26 nM and an IC50 (Beta-lactamase VIM-1 [12]; read-out: pIC50 (converted)) of 10 nM. For the same compound, the pIC50 [21] was 8.1.
`NS(=O)(=O)n1ccc(-c2ccc(C3CCNCC3)cc2)c1C(=O)O` gave an IC50 [22] of 67.3 µM and an IC50 [23] of 40 nM.
With `O=C(O)c1ccccc1CCn1c(-c2cccc(OCCN3CCOCC3)c2)n[nH]c1=S` the Ki [4] was “Not Active”, the Ki [13] was 1270 nM and the Ki [6] was 340 nM. For the same compound, the Ki [7] was “Not Active” and the Ki (Beta-lactamase VIM-1 [14]) was 4.69 µM.
For `O=C(O)c1cccc(C(O)P(=O)(O)O)n1` (stereo not drawn), the IC50 [24] was 2050 nM, the IC50 [25] was 322 nM and the IC50 [26] was 7.2 µM. The IC50 [21] was 1900 nM.
With `NC(=O)[C@@H]1CC[C@@H]2CN1C(=O)N2OS(=O)(=O)O` [AVIBACTAM] the IC50 (Beta-lactamase CTX-M-14) was 3 nM, the IC50 (Beta-lactamase) was 923 nM and the IC50 [27] was 1 nM. For the same compound, the IC50 (Beta-lactamase OXA-1) was 130 nM, the IC50 [28] was 485 nM and the IC50 [29] was 4 nM. The IC50 (Beta-lactamase TEM-1) was 7 nM and the IC50 [30] was 44 nM.
`C[C@H](CS)C(=O)N1CCC[C@@H]1C(=O)O` [D-CAPTOPRIL] gave an IC50 [31] of 72 µM.
For `O=c1c2ccccc2[se]n1-c1ccccc1` [EBSELEN], the Ki ([7]; read-out: Ki) was 0.38 µM.
With `NCCONC(=O)[C@@H]1CC[C@@H]2CN1C(=O)N2OS(=O)(=O)O` [NACUBACTAM] the IC50 (Beta-lactamase CTX-M-14) was 10 nM, the IC50 (Beta-lactamase OXA-23) was 46.4 µM and the IC50 [32] was 96 nM. It also gave an IC50 [33] of 1400 nM, an IC50 (Beta-lactamase) of 845 nM and an IC50 [27] of 13 nM. The IC50 [34] was 869 nM, the IC50 (Beta-lactamase OXA-1) was 3050 nM and the IC50 [28] was 1070 nM. The IC50 [29] was 22 nM, the IC50 (Beta-lactamase TEM-1) was 26 nM and the IC50 [30] was 15 nM.
Compound `O=C(O)CN(CC(=O)O)CC(=O)O` [NITRILOTRIACETIC ACID] has an IC50 [35] of 1300 nM, an IC50 [36] of 112 µM and an IC50 [37] of 2400 nM.
